Source: article PMC7320180, “Hydroxamic acid derivatives as HDAC1, HDAC6 and HDAC8 inhibitors with antiproliferative activity in cancer cell lines” (Scientific Reports, 2020)
pIC50: −log10 of the molar value. Like-named read-outs stand apart in the source and are kept apart here.

How the values were obtained:
HepG2 cells = assay: MTT cytotoxicity test, HepG2; format: cell-based; settings: Homo sapiens; for inhibition at 50 µM: HepG2; for pIC50 / IC50: HepG2, 72 h; for pIC50: read-out: IC50 HepG2; for IC50: MTT, 3 days, read-out: IC50 (µM) HepG2
Method: (§1) All compounds were evaluated in triplicate using six points, 1/3 dilutions, with the highest concentration of 50 µM. The triplicate measurements were placed in three different 96-plates, and 1% DMSO was used as a negative control.
(§2) The first sets of […] (GH38, GH18, GH27, FH38, FH18, […] and FH37) were evaluated in different cancer cell lines: HepG2, MCF-7, SH-SY5Y, MIA PaCa-2, and […]. Furthermore, the second series of eight compounds were evaluated using seven cell lines: SH-SY5Y which is a neuroblastoma cell line; HepG2, a hepatocellular carcinoma cell line; MIA PaCa-2, a human pancreatic carcinoma cell line; MCF-7, a breast cancer cell line; HCC1954, a basal-Her2+ breast carcinoma cell line; RCC4-VA, a renal carcinoma cell line with a VHL mutation; and RCC4-VHL, a renal carcinoma cell without the VHL mutation (wild type). The cells used were seeded in 96-well plates and left for 24 h (5% CO2 and 90% humidity, 50000 cells/well) and incubated for 3 days to study the cytotoxicity.

MIA PaCa-2 cells = assay: MTT cytotoxicity test, MIA PaCa-2; format: cell-based; settings: Homo sapiens; for inhibition at 50 µM: MIA PaCa-2; for pIC50 / IC50: MIA PaCa-2, 72 h; for pIC50: read-out: IC50 MIA PaCa-2; for IC50: MTT, 3 days, read-out: IC50 (µM) MIA PaCa-2
Method: as §1, §2

MCF-7 cells = assay: MTT cytotoxicity test, MCF-7; format: cell-based; settings: Homo sapiens; for inhibition at 50 µM: MCF7; for pIC50 / IC50: MCF7, 72 h; for pIC50: read-out: IC50 MCF-7; for IC50: MTT, 3 days, read-out: IC50 (µM) MCF-7
Method: as §1, §2

HCC1954 cells = assay: MTT cytotoxicity test, HCC1954; format: cell-based; settings: 3 days
Method: as §1, §2

RCC4-VA cells = assay: MTT cytotoxicity test, RCC4-VA; format: cell-based; settings: 72 h, 3 days
Method: as §1, §2

RCC4-VHL cells = assay: MTT cytotoxicity test, RCC4-VHL; format: cell-based; settings: Homo sapiens, 72 h, 3 days
Method: as §1, §2

SH-SY5Y cells = assay: MTT cytotoxicity test, SH-SY5Y; format: cell-based; settings: Homo sapiens, 72 h, 3 days
Method: as §1, §2

HDAC1 = target: T1, HDAC1 (Homo sapiens, UniProt Q13547); assay: HDAC fluorometric enzymatic inhibition assay, HDAC1; format: biochemical
T1 construct: purchased Enzo Life Sciences BML-AK511
T1 sequence (Q13547 whole entry): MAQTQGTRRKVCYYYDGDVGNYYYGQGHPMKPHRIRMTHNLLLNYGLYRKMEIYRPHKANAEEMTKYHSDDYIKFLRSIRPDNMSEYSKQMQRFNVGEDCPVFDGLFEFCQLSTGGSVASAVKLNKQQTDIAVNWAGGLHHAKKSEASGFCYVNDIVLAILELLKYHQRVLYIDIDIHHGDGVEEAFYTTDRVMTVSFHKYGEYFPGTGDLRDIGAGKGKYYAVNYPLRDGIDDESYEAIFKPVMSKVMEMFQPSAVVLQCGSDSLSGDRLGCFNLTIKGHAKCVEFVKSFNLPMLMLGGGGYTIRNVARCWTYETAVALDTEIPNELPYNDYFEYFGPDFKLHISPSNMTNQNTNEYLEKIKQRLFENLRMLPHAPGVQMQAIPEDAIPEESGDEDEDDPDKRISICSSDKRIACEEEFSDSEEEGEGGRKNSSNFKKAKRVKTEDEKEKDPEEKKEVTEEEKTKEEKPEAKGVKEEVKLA

HDAC6 = target: T2, HDAC6 (Homo sapiens, UniProt Q9UBN7); assay: HDAC fluorometric enzymatic inhibition assay, HDAC6; format: biochemical
T2 construct: purchased Enzo Life Sciences BML-AK516
T2 sequence (Q9UBN7 1-1215): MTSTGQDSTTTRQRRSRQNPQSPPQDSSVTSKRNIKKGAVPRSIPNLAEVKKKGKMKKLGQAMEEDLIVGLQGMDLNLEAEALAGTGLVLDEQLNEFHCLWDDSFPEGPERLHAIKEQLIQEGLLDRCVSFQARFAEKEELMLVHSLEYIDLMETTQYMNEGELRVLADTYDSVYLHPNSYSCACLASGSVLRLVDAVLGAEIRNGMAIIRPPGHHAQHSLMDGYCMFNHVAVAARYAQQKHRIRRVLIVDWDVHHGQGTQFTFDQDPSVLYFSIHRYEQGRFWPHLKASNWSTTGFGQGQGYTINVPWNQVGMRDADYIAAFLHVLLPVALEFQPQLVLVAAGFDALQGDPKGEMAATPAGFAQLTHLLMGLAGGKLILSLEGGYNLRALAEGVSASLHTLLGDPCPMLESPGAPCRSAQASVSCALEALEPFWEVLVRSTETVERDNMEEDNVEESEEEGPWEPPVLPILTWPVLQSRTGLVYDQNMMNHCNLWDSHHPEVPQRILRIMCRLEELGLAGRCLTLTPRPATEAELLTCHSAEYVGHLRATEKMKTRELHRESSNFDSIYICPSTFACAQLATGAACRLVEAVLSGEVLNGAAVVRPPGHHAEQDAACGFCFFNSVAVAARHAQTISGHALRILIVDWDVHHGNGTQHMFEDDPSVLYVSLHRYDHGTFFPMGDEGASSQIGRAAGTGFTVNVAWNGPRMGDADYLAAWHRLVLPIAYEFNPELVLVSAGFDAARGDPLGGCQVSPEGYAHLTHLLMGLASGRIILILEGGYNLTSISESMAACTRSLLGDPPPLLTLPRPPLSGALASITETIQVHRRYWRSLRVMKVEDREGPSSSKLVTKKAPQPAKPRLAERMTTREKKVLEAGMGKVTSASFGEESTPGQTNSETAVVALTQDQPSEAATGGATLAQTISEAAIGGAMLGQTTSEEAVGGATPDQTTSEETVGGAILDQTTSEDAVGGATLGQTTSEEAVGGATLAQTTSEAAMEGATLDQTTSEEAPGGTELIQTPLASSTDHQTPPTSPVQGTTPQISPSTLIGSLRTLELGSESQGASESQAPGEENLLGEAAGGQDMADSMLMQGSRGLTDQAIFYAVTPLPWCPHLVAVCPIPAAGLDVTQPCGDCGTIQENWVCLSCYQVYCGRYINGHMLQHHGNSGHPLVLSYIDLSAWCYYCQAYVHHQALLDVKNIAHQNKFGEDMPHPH

HDAC8 = target: T3, HDAC8 (Homo sapiens, UniProt Q9BY41); assay: HDAC fluorometric enzymatic inhibition assay, HDAC8; format: biochemical
T3 construct: purchased Enzo Life Sciences BML-AK518
T3 sequence (Q9BY41 1-377): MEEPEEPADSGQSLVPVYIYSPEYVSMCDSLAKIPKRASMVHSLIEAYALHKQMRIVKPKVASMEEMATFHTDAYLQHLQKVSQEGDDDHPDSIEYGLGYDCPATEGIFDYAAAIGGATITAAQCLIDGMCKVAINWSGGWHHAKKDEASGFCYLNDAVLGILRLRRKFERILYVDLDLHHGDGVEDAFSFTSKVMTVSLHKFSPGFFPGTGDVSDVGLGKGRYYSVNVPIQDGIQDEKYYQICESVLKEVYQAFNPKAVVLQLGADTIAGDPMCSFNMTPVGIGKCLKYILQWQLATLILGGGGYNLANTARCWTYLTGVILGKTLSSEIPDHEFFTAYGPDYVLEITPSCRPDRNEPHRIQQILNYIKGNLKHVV

cancer cell lines = assay: Antiproliferative effect, cell line not stated; format: cell-based; settings: second series, seven cancer cell lines
Method: as §1, §2

Compound | inhibition at 50 µM (HepG2 cells) [%] | pIC50 (HepG2 cells) | inhibition at 50 µM (MIA PaCa-2 cells) [%] | pIC50 (MIA PaCa-2 cells) | inhibition at 50 µM (MCF-7 cells) [%] | pIC50 (MCF-7 cells) | IC50 (HepG2 cells) [µM] | IC50 (MIA PaCa-2 cells) [µM] | IC50 (MCF-7 cells) [µM] | IC50 (HCC1954 cells; Homo sapiens, HCC1954, 72 h) [µM] | IC50 (RCC4-VA cells) [µM] | IC50 (RCC4-VHL cells) [µM] | IC50 (SH-SY5Y cells) [µM] | also measured
Cc1ccc(C(=O)N[C@@H](Cc2ccccc2)C(=O)NO)cc1 [FH18, (S)-N-(1-(hydroxyamino)-1-oxo-3-phenylpropan-2-yl)-4-methylbenzamide] | 5.52 | < 4.30 | 0.05 | < 4.30 | 41.2 | < 4.30 |  |  |  |  |  |  |  | 
CCCCc1ccc(C(=O)N[C@@H](Cc2ccccc2)C(=O)NO)cc1 [FH27, (S)-4-butyl-N-(1-(hydroxyamino)-1-oxo-3-phenylpropan-2-yl)benzamide] | 35.4 | < 4.30 | 2.82 | < 4.30 | 37.6 | < 4.30 |  |  |  |  |  |  |  | 
CCCC(CCC)C(=O)N[C@@H](Cc1ccccc1)C(=O)NO [FH37, (S)-N-(1-(hydroxyamino)-1-oxo-3-phenylpropan-2-yl)-2-propylpentanamide] | 48.6 | < 4.30 | 7.47 | < 4.30 | 49.1 | < 4.30 |  |  |  |  |  |  |  | 
O=C(N[C@@H](Cc1ccccc1)C(=O)NO)c1ccccc1 [FH38, (S)-N-(1-(hydroxyamino)-1-oxo-3-phenylpropan-2-yl)benzamide] | 14.1 | < 4.30 | 0.43 | < 4.30 | 21 | < 4.30 |  |  |  |  |  |  |  | 
Cc1ccc(C(=O)NCC(=O)NO)cc1 [GH18, N-(2-(hydroxyamino)-2-oxoethyl)-4-methyl benzamide] | 3.08 | < 4.30 | 4.44 | < 4.30 | 17.2 | < 4.30 |  |  |  |  |  |  |  | 
CCCCc1ccc(C(=O)NCC(=O)NO)cc1 [GH27, 4-butyl-N-(2-(hydroxyamino)-2-oxoethyl)benzamide] | 1.38 | < 4.30 | 10.7 | < 4.30 | 40.4 | < 4.30 |  |  |  |  |  |  |  | 
O=C(CNC(=O)c1ccccc1)NO [GH38, N-(2-(hydroxyamino)-2-oxoethyl)benzamide] | 1.01 | < 4.30 | 0.18 | < 4.30 | 16.1 | < 4.30 |  |  |  |  |  |  |  | 
CCCCc1ccc(C(=O)N[C@@H](Cc2ccc(O)cc2)C(=O)NO)cc1 [YSL-99, (S)-4-butyl-N-(1-(hydroxyamino)-3-(4-hydroxyphenyl)-1-oxopropan-2-yl)benzamide] |  |  |  |  |  |  | 30.9 | > 50 | 8.96 | 42.9 | > 50 | > 50 | 36.2 | 
CCCCc1ccc(C(=O)N[C@H](Cc2ccccc2)C(=O)NO)cc1 [YSL-106, (R)-4-butyl-N-(1-(hydroxyamino)-1-oxo-3-phenylpropan-2-yl)benzamide] |  |  |  |  |  |  | 11.6 | 21.6 | 4.94 | 26.1 | 12.9 | 21.1 | 18.9 | 
CCCCc1ccc(C(=O)N[C@@H](Cc2cccc3ccccc23)C(=O)NO)cc1 [YSL-109, (S)-4-butyl-N-(1-(hydroxyamino)-3-(naphthalen-1-yl)-1-oxopropan-2-yl)benzamide] |  |  |  |  |  |  | 3.39 | > 50 | 3.41 | 3.41 | 24.9 | 32.7 | 6.42 | IC50 (HCC1954 cells): 3.77 µM; IC50 (HDAC1; read-out: IC50 (nM) HDAC1): 259000 nM; pIC50 (HDAC1; read-out: IC50 HDAC1): 3.59; IC50 (HDAC6): 0.537 nM; selectivity for HDAC6 (HDAC6; HDAC6 compared with HDAC8 and HDAC1): 4000 fold; IC50 (HDAC8; read-out: IC50 (nM) HDAC8): 2240 nM; pIC50 (HDAC8; read-out: IC50 HDAC8): 5.65
CCCCc1ccc(C(=O)N[C@@H](Cc2ccc3ccccc3c2)C(=O)NO)cc1 [YSL-112, (S)-4-butyl-N-(1-(hydroxyamino)-3-(naphthalen-2-yl)-1-oxopropan-2-yl)benzamide] |  |  |  |  |  |  | 10.8 | > 50 | 7.27 | 7.62 | 31.9 | 46.5 | 21.4 | 
CCCCc1ccc(C(=O)N[C@@H](Cc2ccc(F)cc2)C(=O)NO)cc1 [YSL-116, (S)-4-butyl-N-(3-(4-fluorophenyl)-1-(hydroxyamino)-1-oxopropan-2-yl)benzamide] |  |  |  |  |  |  | 18 | > 50 | 27.9 | 18 | 38.9 | 44.2 | 19.6 | 
CCCCc1ccc(C(=O)N[C@@H](Cc2ccc(I)cc2)C(=O)NO)cc1 [YSL-121, (S)-4-butyl-N-(1-(hydroxyamino)-3-(4-iodophenyl)-1-oxopropan-2-yl)benzamide] |  |  |  |  |  |  | 41.1 | > 50 | > 50 | 8.49 | > 50 | > 50 | 1.41 | 
CCCCc1ccc(C(=O)N[C@@H](Cc2ccc([N+](=O)[O-])cc2)C(=O)NO)cc1 [YSL-125, (S)-4-butyl-N-(1-(hydroxyamino)-3-(4-nitrophenyl)-1-oxopropan-2-yl)benzamide] |  |  |  |  |  |  | 15.7 | 42.5 | 16.6 | 14.8 | 10.5 | 8.02 | 6.5 | 
CCCCc1ccc(C(=O)N[C@H](C(=O)NO)c2ccccc2)cc1 [YSL-129, (S)-4-butyl-N-(2-(hydroxyamino)-2-oxo-1-phenylethyl)benzamide] |  |  |  |  |  |  | > 50 | > 50 | > 50 | > 50 | > 50 | > 50 | > 50 | biological activity (cancer cell lines): did not show biological activity
